Test results: PMC6986443, “T‐495, a novel low cooperative M1 receptor positive allosteric modulator, improves memory deficits associated with cholinergic dysfunction and is characterized by low gastrointestinal side effect risk” (Pharmacology Research & Perspectives, 2020)

Legend:
Test in all cases: Selectivity panel
Format in all cases: binding
Angiotensin AT2 = molecular target: T1, Angiotensin AT2 (Homo sapiens, UniProt P50052)
T1 construct: purchased Eurofins Panlabs Taiwan Ltd
Excerpt: (§1) The selectivity of T‐495 at 10 μmol/L against a panel of 106 targets, including receptors, enzymes, ion channels, and transporters, was characterized (Eurofins Panlabs Taiwan Ltd., Taipei, Taiwan).

Glucocorticoid = molecular target: T2, Glucocorticoid (Homo sapiens, UniProt P04150)
T2 construct: purchased Eurofins Panlabs Taiwan Ltd
Excerpt: as §1

[1] = system: Adrenergic α2, non-selective
Excerpt: as §1

[2] = molecular target: T3, Transporter, norepinephrine (NET) (Homo sapiens, UniProt P23975)
T3 construct: purchased Eurofins Panlabs Taiwan Ltd
Excerpt: as §1

Adenosine A1 = molecular target: T4, Adenosine A1 (Homo sapiens, UniProt P30542)
T4 construct: purchased Eurofins Panlabs Taiwan Ltd
Excerpt: as §1

Adrenergic β3 = molecular target: T5, Adrenergic β3 (Homo sapiens, UniProt P13945)
T5 construct: purchased Eurofins Panlabs Taiwan Ltd
Excerpt: as §1

[3] = system: Calcium channel L-type, dihydropyridine
Excerpt: as §1

Sigma, non-selective = system: Sigma, non-selective
Excerpt: as §1

Muscarinic M2 = molecular target: T6, Muscarinic M2 (Homo sapiens, UniProt P08172)
T6 construct: purchased Eurofins Panlabs Taiwan Ltd
Excerpt: as §1

Adenosine A2B = molecular target: T7, Adenosine A2B (Homo sapiens, UniProt P29275)
T7 construct: purchased Eurofins Panlabs Taiwan Ltd
Excerpt: as §1

Opiate δ1 (OP1, DOP) = molecular target: T8, Opiate δ1 (OP1, DOP) (Homo sapiens, UniProt P41143)
T8 construct: purchased Eurofins Panlabs Taiwan Ltd
Excerpt: as §1

Histamine H1 = molecular target: T9, Histamine H1 (Homo sapiens, UniProt P35367)
T9 construct: purchased Eurofins Panlabs Taiwan Ltd
Excerpt: as §1

Tachykinin NK3 = molecular target: T10, Tachykinin NK3 (Homo sapiens, UniProt P29371)
T10 construct: purchased Eurofins Panlabs Taiwan Ltd
Excerpt: as §1

Vasopressin V1A = molecular target: T11, Vasopressin V1A (Homo sapiens, UniProt P37288)
T11 construct: purchased Eurofins Panlabs Taiwan Ltd
Excerpt: as §1

Glutamate, NMDA = system: Glutamate, NMDA
Excerpt: as §1

GABAA, muscimol, central = system: GABAA, muscimol, central
Excerpt: as §1

[4] = system: Glycine, strychnine-sensitive
Excerpt: as §1

Dopamine D1 = molecular target: T12, Dopamine D1 (Homo sapiens, UniProt P21728)
T12 construct: purchased Eurofins Panlabs Taiwan Ltd
Excerpt: as §1

Muscarinic M1 = molecular target: T13, Muscarinic M1 (Homo sapiens, UniProt P11229)
T13 construct: purchased Eurofins Panlabs Taiwan Ltd
Excerpt: as §1

Glutamate, kainate = system: Glutamate, kainate
Excerpt: as §1

[5] = molecular target: T14, Transporter, dopamine (DAT) (Homo sapiens, UniProt Q01959)
T14 construct: purchased Eurofins Panlabs Taiwan Ltd
Excerpt: as §1

Serotonin 5-HT1A = molecular target: T15, Serotonin 5-HT1A (Homo sapiens, UniProt P08908)
T15 construct: purchased Eurofins Panlabs Taiwan Ltd
Excerpt: as §1

Serotonin 5-HT3 = molecular target: T16, Serotonin 5-HT3 (Homo sapiens, UniProt P46098)
T16 construct: purchased Eurofins Panlabs Taiwan Ltd
Excerpt: as §1

GABAB, non-selective = system: GABAB, non-selective
Excerpt: as §1

Muscarinic M3 = molecular target: T17, Muscarinic M3 (Homo sapiens, UniProt P20309)
T17 construct: purchased Eurofins Panlabs Taiwan Ltd
Excerpt: as §1

Sodium channel, Site 2 = system: Sodium channel, Site 2
Excerpt: as §1

[6] = system: Transporter, vesicular monoamine (non-selective)
Excerpt: as §1

Bradykinin B1 = molecular target: T18, Bradykinin B1 (Homo sapiens, UniProt P46663)
T18 construct: purchased Eurofins Panlabs Taiwan Ltd
Excerpt: as §1

Opiate μ (OP3, MOP) = molecular target: T19, Opiate μ (OP3, MOP) (Homo sapiens, UniProt P35372)
T19 construct: purchased Eurofins Panlabs Taiwan Ltd
Excerpt: as §1

[7] = system: Estrogen Receptor (non-selective)
Excerpt: as §1

Dopamine D2L = molecular target: T20, Dopamine D2L (Homo sapiens, UniProt P14416)
T20 construct: purchased Eurofins Panlabs Taiwan Ltd
Excerpt: as §1

Nicotinic acetylcholine = system: Nicotinic acetylcholine
Excerpt: as §1

[8] = system: Calcium channel L-type, benzothiazepine
Excerpt: as §1

Endothelin ETA = molecular target: T21, Endothelin ETA (Homo sapiens, UniProt P25101)
T21 construct: purchased Eurofins Panlabs Taiwan Ltd
Excerpt: as §1

[9] = molecular target: T22, Cholecystokinin CCK1 (CCKA) (Homo sapiens, UniProt P32238)
T22 construct: purchased Eurofins Panlabs Taiwan Ltd
Excerpt: as §1

IP (PGI2) = molecular target: T23, IP (PGI2) (Homo sapiens, UniProt P43119)
T23 construct: purchased Eurofins Panlabs Taiwan Ltd
Excerpt: as §1

Androgen (testosterone) = system: Androgen (testosterone)
Excerpt: as §1

Serotonin 5-HT2B = molecular target: T24, Serotonin 5-HT2B (Homo sapiens, UniProt P41595)
T24 construct: purchased Eurofins Panlabs Taiwan Ltd
Excerpt: as §1

Bradykinin B2 = molecular target: T25, Bradykinin B2 (Homo sapiens, UniProt P30411)
T25 construct: purchased Eurofins Panlabs Taiwan Ltd
Excerpt: as §1

Serotonin 5-HT2C = molecular target: T26, Serotonin 5-HT2C (Homo sapiens, UniProt P28335)
T26 construct: purchased Eurofins Panlabs Taiwan Ltd
Excerpt: as §1

Cannabinoid CB2 = molecular target: T27, Cannabinoid CB2 (Homo sapiens, UniProt P34972)
T27 construct: purchased Eurofins Panlabs Taiwan Ltd
Excerpt: as §1

Opiate κ (OP2, KOP) = molecular target: T28, Opiate κ (OP2, KOP) (Homo sapiens, UniProt P41145)
T28 construct: purchased Eurofins Panlabs Taiwan Ltd
Excerpt: as §1

Progesterone PR-B = molecular target: T29, Progesterone PR-B (Homo sapiens, UniProt P06401)
T29 construct: purchased Eurofins Panlabs Taiwan Ltd
Excerpt: as §1

Adrenergic β1 = molecular target: T30, Adrenergic β1 (Homo sapiens, UniProt P08588)
T30 construct: purchased Eurofins Panlabs Taiwan Ltd
Excerpt: as §1

Tachykinin NK1 = molecular target: T31, Tachykinin NK1 (Homo sapiens, UniProt P25103)
T31 construct: purchased Eurofins Panlabs Taiwan Ltd
Excerpt: as §1

Serotonin 5-HT4 = system: Serotonin 5-HT4
Excerpt: as §1

T19 sequence (P35372 whole entry): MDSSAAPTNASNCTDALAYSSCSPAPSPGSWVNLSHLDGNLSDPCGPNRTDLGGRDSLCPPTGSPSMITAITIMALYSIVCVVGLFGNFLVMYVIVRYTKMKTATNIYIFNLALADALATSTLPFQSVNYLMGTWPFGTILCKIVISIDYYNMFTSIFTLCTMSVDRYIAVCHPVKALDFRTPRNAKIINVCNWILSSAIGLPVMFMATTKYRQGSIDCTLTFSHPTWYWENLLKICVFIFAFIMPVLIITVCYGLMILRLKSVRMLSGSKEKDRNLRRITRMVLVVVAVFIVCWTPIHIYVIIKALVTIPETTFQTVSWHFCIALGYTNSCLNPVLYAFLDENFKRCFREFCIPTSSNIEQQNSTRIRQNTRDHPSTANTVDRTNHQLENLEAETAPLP
T1 sequence (P50052 whole entry): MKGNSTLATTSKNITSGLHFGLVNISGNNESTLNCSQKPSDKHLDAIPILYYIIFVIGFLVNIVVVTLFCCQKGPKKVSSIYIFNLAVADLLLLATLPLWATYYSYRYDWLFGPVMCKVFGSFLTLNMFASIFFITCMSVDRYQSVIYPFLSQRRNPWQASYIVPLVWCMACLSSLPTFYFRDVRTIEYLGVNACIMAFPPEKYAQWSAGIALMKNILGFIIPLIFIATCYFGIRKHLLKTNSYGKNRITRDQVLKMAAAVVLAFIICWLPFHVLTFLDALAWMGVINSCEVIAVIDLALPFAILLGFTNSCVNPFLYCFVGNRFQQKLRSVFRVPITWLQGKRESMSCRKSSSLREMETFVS
T17 sequence (P20309 whole entry): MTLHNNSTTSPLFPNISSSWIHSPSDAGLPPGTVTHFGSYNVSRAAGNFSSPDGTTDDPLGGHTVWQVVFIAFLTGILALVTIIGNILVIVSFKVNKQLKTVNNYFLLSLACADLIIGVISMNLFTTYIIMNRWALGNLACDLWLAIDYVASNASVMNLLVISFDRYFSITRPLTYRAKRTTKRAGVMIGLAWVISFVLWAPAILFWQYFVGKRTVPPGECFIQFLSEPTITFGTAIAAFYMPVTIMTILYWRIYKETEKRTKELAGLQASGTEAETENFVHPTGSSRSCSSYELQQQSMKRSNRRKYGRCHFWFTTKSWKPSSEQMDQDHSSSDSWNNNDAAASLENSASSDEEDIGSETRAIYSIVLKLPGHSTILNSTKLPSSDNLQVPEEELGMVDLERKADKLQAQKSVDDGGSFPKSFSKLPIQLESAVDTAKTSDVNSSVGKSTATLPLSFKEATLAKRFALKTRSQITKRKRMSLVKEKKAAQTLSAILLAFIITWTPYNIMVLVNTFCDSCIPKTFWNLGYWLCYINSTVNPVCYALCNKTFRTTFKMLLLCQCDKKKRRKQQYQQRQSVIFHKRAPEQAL
T9 sequence (P35367 whole entry): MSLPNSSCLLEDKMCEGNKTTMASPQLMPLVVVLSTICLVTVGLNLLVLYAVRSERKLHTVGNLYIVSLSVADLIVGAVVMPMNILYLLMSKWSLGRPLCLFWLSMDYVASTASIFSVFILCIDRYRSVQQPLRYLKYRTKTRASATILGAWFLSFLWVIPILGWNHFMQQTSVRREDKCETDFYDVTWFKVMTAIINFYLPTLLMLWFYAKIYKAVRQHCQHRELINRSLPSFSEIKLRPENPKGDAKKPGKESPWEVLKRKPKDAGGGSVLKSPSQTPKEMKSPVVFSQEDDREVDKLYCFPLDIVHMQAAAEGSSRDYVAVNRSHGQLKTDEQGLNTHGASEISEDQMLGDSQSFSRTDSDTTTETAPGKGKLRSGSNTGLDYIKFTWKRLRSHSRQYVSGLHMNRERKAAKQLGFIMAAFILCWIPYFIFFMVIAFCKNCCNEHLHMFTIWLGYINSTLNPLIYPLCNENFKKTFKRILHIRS
T24 sequence (P41595 whole entry): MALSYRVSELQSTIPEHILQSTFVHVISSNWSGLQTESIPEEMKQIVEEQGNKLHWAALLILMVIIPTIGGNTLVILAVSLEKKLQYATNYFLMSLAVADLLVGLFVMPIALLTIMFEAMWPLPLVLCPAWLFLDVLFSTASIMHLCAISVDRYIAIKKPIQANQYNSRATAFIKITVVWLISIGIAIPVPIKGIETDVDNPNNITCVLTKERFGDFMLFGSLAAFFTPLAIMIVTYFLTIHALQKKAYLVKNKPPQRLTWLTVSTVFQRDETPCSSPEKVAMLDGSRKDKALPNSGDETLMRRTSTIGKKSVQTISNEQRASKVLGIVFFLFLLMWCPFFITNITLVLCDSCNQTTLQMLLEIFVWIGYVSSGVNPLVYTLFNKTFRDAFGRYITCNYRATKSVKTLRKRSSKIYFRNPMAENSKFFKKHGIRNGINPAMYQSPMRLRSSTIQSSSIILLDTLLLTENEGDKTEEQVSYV
T29 sequence (P06401 whole entry): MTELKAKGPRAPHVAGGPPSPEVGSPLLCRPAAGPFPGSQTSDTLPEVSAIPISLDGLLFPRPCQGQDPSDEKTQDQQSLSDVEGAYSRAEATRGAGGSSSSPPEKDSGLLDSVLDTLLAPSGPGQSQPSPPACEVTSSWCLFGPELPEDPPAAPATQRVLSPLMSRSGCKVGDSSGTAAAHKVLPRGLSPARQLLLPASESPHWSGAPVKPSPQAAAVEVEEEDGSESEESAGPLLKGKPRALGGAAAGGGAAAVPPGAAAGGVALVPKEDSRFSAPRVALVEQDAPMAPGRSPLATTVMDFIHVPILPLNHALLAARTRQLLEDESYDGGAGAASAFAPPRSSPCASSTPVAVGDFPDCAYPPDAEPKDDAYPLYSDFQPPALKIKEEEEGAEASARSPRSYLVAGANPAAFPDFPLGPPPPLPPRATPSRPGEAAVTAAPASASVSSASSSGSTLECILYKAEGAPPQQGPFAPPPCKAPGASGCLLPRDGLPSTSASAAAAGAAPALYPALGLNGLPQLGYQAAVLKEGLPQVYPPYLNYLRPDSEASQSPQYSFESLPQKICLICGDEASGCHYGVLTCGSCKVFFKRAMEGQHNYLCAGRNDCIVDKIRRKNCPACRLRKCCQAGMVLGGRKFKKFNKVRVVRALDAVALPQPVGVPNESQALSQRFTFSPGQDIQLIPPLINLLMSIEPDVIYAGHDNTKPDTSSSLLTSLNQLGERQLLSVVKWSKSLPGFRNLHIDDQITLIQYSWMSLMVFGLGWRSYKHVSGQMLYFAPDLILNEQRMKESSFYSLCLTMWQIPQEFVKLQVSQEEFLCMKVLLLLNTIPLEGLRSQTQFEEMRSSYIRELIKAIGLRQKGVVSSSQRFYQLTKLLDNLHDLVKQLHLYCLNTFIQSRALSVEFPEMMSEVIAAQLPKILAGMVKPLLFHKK
T28 sequence (P41145 whole entry): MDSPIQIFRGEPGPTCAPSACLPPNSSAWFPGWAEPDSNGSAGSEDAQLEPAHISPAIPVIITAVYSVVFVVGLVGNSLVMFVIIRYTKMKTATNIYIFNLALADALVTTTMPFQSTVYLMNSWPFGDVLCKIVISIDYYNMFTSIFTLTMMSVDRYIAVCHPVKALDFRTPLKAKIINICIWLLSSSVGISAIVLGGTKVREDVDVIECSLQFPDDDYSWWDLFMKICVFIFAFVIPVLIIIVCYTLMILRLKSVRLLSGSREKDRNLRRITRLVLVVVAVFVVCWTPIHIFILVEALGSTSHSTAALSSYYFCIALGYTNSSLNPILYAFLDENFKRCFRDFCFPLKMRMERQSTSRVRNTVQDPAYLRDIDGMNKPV
T25 sequence (P30411 whole entry): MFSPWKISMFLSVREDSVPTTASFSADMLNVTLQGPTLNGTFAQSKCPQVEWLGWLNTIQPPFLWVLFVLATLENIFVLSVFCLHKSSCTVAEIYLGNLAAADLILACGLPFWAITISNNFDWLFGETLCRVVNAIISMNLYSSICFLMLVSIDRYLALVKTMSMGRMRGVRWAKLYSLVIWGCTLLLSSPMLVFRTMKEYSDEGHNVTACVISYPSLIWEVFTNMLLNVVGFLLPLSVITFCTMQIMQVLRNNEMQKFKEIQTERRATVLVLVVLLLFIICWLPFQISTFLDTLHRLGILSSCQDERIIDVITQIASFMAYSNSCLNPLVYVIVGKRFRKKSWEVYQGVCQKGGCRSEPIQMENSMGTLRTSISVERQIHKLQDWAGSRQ
T31 sequence (P25103 whole entry): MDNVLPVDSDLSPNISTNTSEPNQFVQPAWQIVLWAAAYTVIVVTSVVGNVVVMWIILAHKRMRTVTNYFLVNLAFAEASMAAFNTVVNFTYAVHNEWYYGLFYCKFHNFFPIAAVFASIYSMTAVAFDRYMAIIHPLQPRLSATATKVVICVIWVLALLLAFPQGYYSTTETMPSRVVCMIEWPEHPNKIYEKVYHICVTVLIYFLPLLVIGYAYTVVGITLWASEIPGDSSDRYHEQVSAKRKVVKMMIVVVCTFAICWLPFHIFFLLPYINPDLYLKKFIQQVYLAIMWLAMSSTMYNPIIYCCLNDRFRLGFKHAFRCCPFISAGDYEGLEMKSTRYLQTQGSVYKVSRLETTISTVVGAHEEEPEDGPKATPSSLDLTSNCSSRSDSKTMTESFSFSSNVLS
T7 sequence (P29275 whole entry): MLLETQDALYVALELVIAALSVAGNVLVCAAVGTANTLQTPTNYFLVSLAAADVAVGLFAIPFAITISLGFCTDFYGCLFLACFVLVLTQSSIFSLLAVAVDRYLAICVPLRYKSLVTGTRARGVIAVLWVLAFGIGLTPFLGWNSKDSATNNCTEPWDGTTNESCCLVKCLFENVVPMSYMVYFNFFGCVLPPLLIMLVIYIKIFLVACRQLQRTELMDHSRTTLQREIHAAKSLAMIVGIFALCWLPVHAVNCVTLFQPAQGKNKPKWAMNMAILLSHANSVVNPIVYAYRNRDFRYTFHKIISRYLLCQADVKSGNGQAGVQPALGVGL

Cc1c(Cc2ccc(Cl)nc2)cc2c(c1Cl)OCN([C@H]1CCC[C@@H]1O)C2=O [T‐495, 8‐chloro‐6‐((6‐chloropyridin‐3‐yl)methyl)‐3‐((1S,2S)‐2‐hydroxycyclopentyl)‐7‐methyl‐2,3‐dihydro‐4H‐1,3‐benzoxazin‐4‐one]
inhibition at 10 µM (Angiotensin AT2): 0%
inhibition at 10 µM (Glucocorticoid): 25%
% inhibition at 10 μM [1]: 26%
inhibition at 10 µM [2]: 17%
inhibition at 10 µM (Adenosine A1): 15%
inhibition at 10 µM (Adrenergic β3): 7%
% inhibition at 10 μM [3]: 27%
% inhibition at 10 μM (Sigma, non-selective): 25%
inhibition at 10 µM (Muscarinic M2): 8%
inhibition at 10 µM (Adenosine A2B): 7%
inhibition at 10 µM (Opiate δ1 (OP1, DOP)): 4%
inhibition at 10 µM (Histamine H1): 2%
inhibition at 10 µM (Tachykinin NK3): 5%
inhibition at 10 µM (Vasopressin V1A): 7%
% inhibition at 10 μM (Glutamate, NMDA): 14%
% inhibition at 10 μM (GABAA, muscimol, central): -1%
% inhibition at 10 μM [4]: 9%
inhibition at 10 µM (Dopamine D1): -7%
inhibition at 10 µM (Muscarinic M1): 15%
% inhibition at 10 μM (Glutamate, kainate): 13%
inhibition at 10 µM [5]: 58%
inhibition at 10 µM (Serotonin 5-HT1A): 8%
inhibition at 10 µM (Serotonin 5-HT3): -3%
% inhibition at 10 μM (GABAB, non-selective): 4%
inhibition at 10 µM (Muscarinic M3): 20%
% inhibition at 10 μM (Sodium channel, Site 2): 1%
% inhibition at 10 μM [6]: 12%
inhibition at 10 µM (Bradykinin B1): 2%
inhibition at 10 µM (Opiate μ (OP3, MOP)): 12%
% inhibition at 10 μM [7]: 5%
inhibition at 10 µM (Dopamine D2L): 4%
% inhibition at 10 μM (Nicotinic acetylcholine): -4%
% inhibition at 10 μM [8]: -5%
inhibition at 10 µM (Endothelin ETA): -4%
inhibition at 10 µM [9]: 2%
inhibition at 10 µM (IP (PGI2)): 16%
% inhibition at 10 μM (Androgen (testosterone)): 3%
inhibition at 10 µM (Serotonin 5-HT2B): 28%
inhibition at 10 µM (Bradykinin B2): -4%
inhibition at 10 µM (Serotonin 5-HT2C): 10%
inhibition at 10 µM (Cannabinoid CB2): 12%
inhibition at 10 µM (Opiate κ (OP2, KOP)): 14%
inhibition at 10 µM (Progesterone PR-B): 21%
inhibition at 10 µM (Adrenergic β1): 4%
inhibition at 10 µM (Tachykinin NK1): -2%
% inhibition at 10 μM (Serotonin 5-HT4): 22%
